Common to all, as to assay type: functional
For assay [1], the system named is Candida parapsilosis. The experiment in a line: Antifungal activity against Candida parapsilosis ATCC 22019 by CLSI two fold serial dilution method. Conditions: Lodderomyces parapsilosis.
In assay [2] the test system is Candida tropicalis. The experiment in a line: Antifungal activity against drug-resistant Candida tropicalis by CLSI two fold serial dilution method.
Assay [3] has as its system Micrococcus luteus. As to the kind of experiment: Antibacterial activity against Micrococcus luteus ATCC 4698 after 18 to 24 hrs by CLSI two fold serial dilution method.
Assay [4] relates to Enterococcus faecalis. The experiment in a line: Antibacterial activity against drug-resistant Enterococcus faecalis after 18 to 24 hrs by CLSI two fold serial dilution method.
Assay [5] has as its system Cyberlindnera jadinii. As to the kind of experiment: Antifungal activity against Candida utilis ATCC 9950 by CLSI two fold serial dilution method. Conditions: Williopsis jadinii.
For assay [6], the system named is Aspergillus fumigatus. As to the kind of experiment: Antifungal activity against drug-resistant Aspergillus fumigatus by CLSI two fold serial dilution method.
In assay [7] the test system is Aspergillus flavus. The experiment in a line: Antifungal activity against Aspergillus flavus ATCC 204304 by CLSI two fold serial dilution method.
In assay [8] the test system is Bacillus subtilis. The experiment in a line: Antibacterial activity against Bacillus subtilis ATCC 21216 after 18 to 24 hrs by CLSI two fold serial dilution method.
The subject of assay [9] is Pseudomonas aeruginosa. The experiment in a line: Antibacterial activity against Pseudomonas aeruginosa ATCC 27853 after 18 to 24 hrs by CLSI two fold serial dilution method.
Assay [10] deals with Pseudomonas aeruginosa. The experiment in a line: Antibacterial activity against drug-resistant Pseudomonas aeruginosa after 18 to 24 hrs by CLSI two fold serial dilution method.
The subject of assay [11] is Candida albicans. As to the kind of experiment: Antifungal activity against drug-resistant Candida albicans by CLSI two fold serial dilution method.
Assay [12] concerns Escherichia coli. The experiment in a line: Antibacterial activity against Escherichia coli DH52 after 18 to 24 hrs by CLSI two fold serial dilution method.
Assay [13] relates to Klebsiella pneumoniae. The experiment in a line: Antibacterial activity against drug-resistant Klebsiella pneumoniae after 18 to 24 hrs by CLSI two fold serial dilution method.
Assay [14] relates to Escherichia coli. As to the kind of experiment: Antibacterial activity against drug-resistant Escherichia coli after 18 to 24 hrs by CLSI two fold serial dilution method.
Assay [15] has as its system Acinetobacter baumannii. The experiment in a line: Antibacterial activity against drug-resistant Acinetobacter baumannii after 18 to 24 hrs by CLSI two fold serial dilution method.
Assay [16] relates to Saccharomyces cerevisiae. As to the kind of experiment: Antifungal activity against Saccharomyces cerevisiae ATCC 9763 by CLSI two fold serial dilution method.
The test system of assay [17] is Staphylococcus aureus. The experiment in a line: Antibacterial activity against Staphylococcus aureus ATCC 25923 after 18 to 24 hrs by CLSI two fold serial dilution method.
Assay [18] concerns Staphylococcus aureus. As to the kind of experiment: Antibacterial activity against methicillin-resistant Staphylococcus aureus N315 after 18 to 24 hrs by CLSI two fold serial dilution method.
The subject of assay [19] is Candida albicans. As to the kind of experiment: Antifungal activity against Candida albicans ATCC 76615 by CLSI two fold serial dilution method.
Assay [20] concerns Pichia norvegensis. As to the kind of experiment: Antifungal activity against Candida mycoderma ATCC 96918 by CLSI two fold serial dilution method.

≈ marks a conversion by molar mass, not a printed value.

With `COc1cc(/C=N/NC(N)=S)c2c(c1OCc1ccccc1Cl)CN1CCc3cc4c(cc3C1C2)OCO4` (stereo not given), the MIC (usually the lowest concentration found to suppress growth) in assay [1] was determined as 230 µM (≈ 127 µg/mL); in assay [2] it was 470 µM (≈ 259 µg/mL); in assay [3] it was 230 µM (≈ 127 µg/mL); in assay [4] it was 230 µM (≈ 127 µg/mL); in [5], 230 µM (≈ 127 µg/mL); in [6] it was 4 µM (≈ 2.2 µg/mL). The MIC was found to be 470 µM (≈ 259 µg/mL) in [7]; 230 µM (≈ 127 µg/mL) in [8]; 470 µM (≈ 259 µg/mL) in [9]; 470 µM (≈ 259 µg/mL) in [10]; 230 µM (≈ 127 µg/mL) in assay [11]; 230 µM (≈ 127 µg/mL) in assay [12]. Besides, the MIC was found to be 230 µM (≈ 127 µg/mL) in [13]; 230 µM (≈ 127 µg/mL) in [14]; 4 µM (≈ 2.2 µg/mL) in assay [15]; 930 µM (≈ 512 µg/mL) in assay [16]; 120 µM (≈ 66.1 µg/mL) in [17]; 120 µM (≈ 66.1 µg/mL) in assay [18]. Further, the MIC in assay [19] and in assay [20] was 230 µM (≈ 127 µg/mL) throughout.

Regarding `COc1cc(/C=N/NC(N)=S)c2c(c1OCC#N)CN1CCc3cc4c(cc3C1C2)OCO4` (stereo not given), the MIC in assay [1] came out at 280 µM (≈ 130 µg/mL); in [2] it was 280 µM (≈ 130 µg/mL); in assay [3], 280 µM (≈ 130 µg/mL); in assay [4] it was 280 µM (≈ 130 µg/mL); in assay [5] it was 280 µM (≈ 130 µg/mL); in [6], 70 µM (≈ 32.6 µg/mL). The MIC in assay [7] was found to be 280 µM (≈ 130 µg/mL); in assay [8], 550 µM (≈ 256 µg/mL); in assay [9], 280 µM (≈ 130 µg/mL); in assay [10] it was 280 µM (≈ 130 µg/mL); in assay [11], 280 µM (≈ 130 µg/mL); in assay [12], 280 µM (≈ 130 µg/mL). The MIC in assay [13] turned out to be 550 µM (≈ 256 µg/mL); in assay [14] it was 280 µM (≈ 130 µg/mL); in assay [15], 280 µM (≈ 130 µg/mL); in assay [16], 280 µM (≈ 130 µg/mL); in assay [17], 280 µM (≈ 130 µg/mL); in assay [18] it was 280 µM (≈ 130 µg/mL). Besides, the MIC was found to be 280 µM (≈ 130 µg/mL) in [19] and 550 µM (≈ 256 µg/mL) in assay [20].

In the case of `COc1cc(/C=N/NC(N)=S)c2c(c1OCc1ccc(Cl)cc1)CN1CCc3cc4c(cc3C1C2)OCO4` (stereo not given), the MIC in assay [1] is 7 µM (≈ 3.86 µg/mL); in assay [2], 230 µM (≈ 127 µg/mL); in [3] it was 230 µM (≈ 127 µg/mL); in assay [4], 230 µM (≈ 127 µg/mL); in assay [5], 470 µM (≈ 259 µg/mL); in assay [6], 470 µM (≈ 259 µg/mL). Further, the MIC in assay [7] was determined as 470 µM (≈ 259 µg/mL); in assay [8], 470 µM (≈ 259 µg/mL); in [9], 230 µM (≈ 127 µg/mL); in assay [10], 230 µM (≈ 127 µg/mL); in [11], 230 µM (≈ 127 µg/mL); in [12] it was 230 µM (≈ 127 µg/mL). Further, the MIC in assay [13] turned out to be 120 µM (≈ 66.1 µg/mL); in assay [14] it was 230 µM (≈ 127 µg/mL); in assay [15] it was 230 µM (≈ 127 µg/mL); in [16], 470 µM (≈ 259 µg/mL); in assay [17] it was 230 µM (≈ 127 µg/mL); in [18] it was 230 µM (≈ 127 µg/mL). Further, the MIC in [19] and in [20] was 230 µM (≈ 127 µg/mL) throughout.

For the compound `CCCCCCCCCCCCOc1c(OC)cc(/C=N/NC(N)=S)c2c1CN1CCc3cc4c(cc3C1C2)OCO4` (stereo not given), the MIC in [1] was found to be 220 µM (≈ 131 µg/mL); in assay [2], 50 µM (≈ 29.7 µg/mL); in [3] it was 110 µM (≈ 65.4 µg/mL); in assay [4], 220 µM (≈ 131 µg/mL); in assay [5], 430 µM (≈ 256 µg/mL); in assay [6] it was 7 µM (≈ 4.16 µg/mL). The MIC in assay [7] was 430 µM (≈ 256 µg/mL); in assay [8], 430 µM (≈ 256 µg/mL); in assay [9], 110 µM (≈ 65.4 µg/mL); in assay [10], 110 µM (≈ 65.4 µg/mL); in assay [11] it was 110 µM (≈ 65.4 µg/mL); in assay [12], 110 µM (≈ 65.4 µg/mL). The MIC is 430 µM (≈ 256 µg/mL) in assay [13]; 110 µM (≈ 65.4 µg/mL) in [14]; 7 µM (≈ 4.16 µg/mL) in [15]; 220 µM (≈ 131 µg/mL) in assay [16]; 110 µM (≈ 65.4 µg/mL) in assay [17]; 110 µM (≈ 65.4 µg/mL) in assay [18]. Moreover, the MIC is 110 µM (≈ 65.4 µg/mL) in assay [19] and 220 µM (≈ 131 µg/mL) in [20].

In the case of `CCCCOc1c(OC)cc(/C=N/NC(N)=S)c2c1CN1CCc3cc4c(cc3C1C2)OCO4` (stereo not given), the MIC was 130 µM (≈ 62.7 µg/mL) in assay [1]; 270 µM (≈ 130 µg/mL) in assay [2]; 270 µM (≈ 130 µg/mL) in [3]; 130 µM (≈ 62.7 µg/mL) in [4]; 130 µM (≈ 62.7 µg/mL) in assay [5]; 270 µM (≈ 130 µg/mL) in assay [6]. The MIC in assay [7] worked out at 270 µM (≈ 130 µg/mL); in assay [8], 270 µM (≈ 130 µg/mL); in [9], 130 µM (≈ 62.7 µg/mL); in assay [10], 270 µM (≈ 130 µg/mL); in assay [11], 130 µM (≈ 62.7 µg/mL); in [12], 270 µM (≈ 130 µg/mL). Besides, the MIC amounted to 130 µM (≈ 62.7 µg/mL) in [13]; 270 µM (≈ 130 µg/mL) in assay [14]; 70 µM (≈ 33.8 µg/mL) in assay [15]; 530 µM (≈ 256 µg/mL) in assay [16]; 130 µM (≈ 62.7 µg/mL) in assay [17]; 130 µM (≈ 62.7 µg/mL) in assay [18]. For the same compound, the MIC in assay [19] and in assay [20] was 130 µM (≈ 62.7 µg/mL) throughout.

The values are drawn from ChEMBL document CHEMBL4145497, “Discovery of 2-aminothiazolyl berberine derivatives as effectively antibacterial agents toward clinically drug-resistant Gram-negative Acinetobacter baumanii” (Eur J Med Chem, 2018).
